Reference: the NIST ThermoML archive (doi:10.1021/acs.jced.7b00106)
± gives the expanded uncertainty stated by the source.

Conditions: Liquid, Hot wire method

FC(F)(F)/C=C/Cl [(E)-1-chloro-3,3,3-trifluoroprop-1-ene]
Conditions | thermal conductivity [W/m/K]
242.05 K, 36072 kPa | 0.1119 ± 0.0047
242.06 K, 13440 kPa | 0.1056 ± 0.0033
242.08 K, 7089 kPa | 0.1037 ± 0.0036
242.09 K, 28062 kPa | 0.1106 ± 0.0034
242.11 K, 583 kPa | 0.101 ± 0.0031
242.13 K, 20421 kPa | 0.1074 ± 0.0033
242.18 K, 13439 kPa | 0.105 ± 0.0037
242.22 K, 7107 kPa | 0.1031 ± 0.0039
242.24 K, 585 kPa | 0.1007 ± 0.0034
242.32 K, 63843 kPa | 0.1195 ± 0.0059
242.33 K, 53263 kPa | 0.1172 ± 0.0038
242.34 K, 36064 kPa | 0.112 ± 0.0034
242.34 K, 43841 kPa | 0.1149 ± 0.0058
242.41 K, 28063 kPa | 0.1093 ± 0.0053
242.45 K, 20418 kPa | 0.1078 ± 0.0035
242.46 K, 53261 kPa | 0.1167 ± 0.0052
242.46 K, 63839 kPa | 0.1194 ± 0.0037
242.47 K, 43873 kPa | 0.1147 ± 0.0066
242.49 K, 36067 kPa | 0.1119 ± 0.0036
242.5 K, 13437 kPa | 0.1053 ± 0.0032
242.54 K, 7100 kPa | 0.1033 ± 0.005
242.55 K, 28067 kPa | 0.11 ± 0.006
242.56 K, 597 kPa | 0.101 ± 0.0031
242.59 K, 20435 kPa | 0.1072 ± 0.0043
242.65 K, 13436 kPa | 0.105 ± 0.0032
242.69 K, 7107 kPa | 0.1029 ± 0.0039
242.76 K, 53251 kPa | 0.1166 ± 0.0052
242.76 K, 63833 kPa | 0.1199 ± 0.0037
242.79 K, 43839 kPa | 0.115 ± 0.0038
242.81 K, 36066 kPa | 0.1121 ± 0.0035
242.88 K, 28066 kPa | 0.1102 ± 0.0039
242.91 K, 63824 kPa | 0.1193 ± 0.004
242.93 K, 20434 kPa | 0.1075 ± 0.0035
242.93 K, 53255 kPa | 0.1164 ± 0.004
242.96 K, 43854 kPa | 0.1143 ± 0.0049
242.98 K, 36047 kPa | 0.1118 ± 0.0039
242.99 K, 13448 kPa | 0.1056 ± 0.0034
243.04 K, 7102 kPa | 0.1029 ± 0.0034
243.05 K, 28059 kPa | 0.1096 ± 0.0045
243.08 K, 588 kPa | 0.101 ± 0.0039
243.11 K, 20431 kPa | 0.1071 ± 0.0034
243.18 K, 13440 kPa | 0.105 ± 0.0034
243.22 K, 7112 kPa | 0.1026 ± 0.0033
243.23 K, 63821 kPa | 0.1197 ± 0.0037
243.26 K, 584 kPa | 0.1004 ± 0.004
243.26 K, 53253 kPa | 0.1164 ± 0.0036
243.29 K, 43835 kPa | 0.1146 ± 0.0048
243.3 K, 36069 kPa | 0.1121 ± 0.0037
243.4 K, 28075 kPa | 0.1098 ± 0.0041
243.42 K, 63814 kPa | 0.1191 ± 0.0039
243.44 K, 53247 kPa | 0.1163 ± 0.0035
243.46 K, 20431 kPa | 0.1074 ± 0.0034
243.49 K, 43850 kPa | 0.114 ± 0.0039
243.51 K, 36041 kPa | 0.1117 ± 0.0034
243.53 K, 13443 kPa | 0.1053 ± 0.0061
243.58 K, 7097 kPa | 0.103 ± 0.0032
243.6 K, 28066 kPa | 0.1094 ± 0.0033
243.63 K, 586 kPa | 0.1005 ± 0.004
243.66 K, 20425 kPa | 0.107 ± 0.0036
243.74 K, 63809 kPa | 0.1193 ± 0.0054
243.78 K, 53242 kPa | 0.1168 ± 0.0036
243.8 K, 7115 kPa | 0.1027 ± 0.0033
243.83 K, 43827 kPa | 0.1143 ± 0.0056
243.85 K, 580 kPa | 0.1001 ± 0.0042
243.85 K, 36062 kPa | 0.1118 ± 0.0041
243.96 K, 28066 kPa | 0.1097 ± 0.0033
243.96 K, 63804 kPa | 0.119 ± 0.0036
244 K, 53243 kPa | 0.1163 ± 0.0035
244.02 K, 20445 kPa | 0.1073 ± 0.0048
244.06 K, 43851 kPa | 0.1139 ± 0.0036
244.09 K, 36043 kPa | 0.1116 ± 0.0034
244.19 K, 28067 kPa | 0.1093 ± 0.0033
244.27 K, 20428 kPa | 0.1068 ± 0.0039
261.5 K, 276 kPa | 0.09433 ± 0.0029
261.52 K, 5038 kPa | 0.09629 ± 0.0032
261.54 K, 10280 kPa | 0.09846 ± 0.0035
261.55 K, 22296 kPa | 0.1036 ± 0.011
261.56 K, 15956 kPa | 0.1002 ± 0.0053
261.58 K, 270 kPa | 0.09415 ± 0.0033
261.61 K, 5056 kPa | 0.09622 ± 0.0046
261.63 K, 10283 kPa | 0.09831 ± 0.0031
261.64 K, 22292 kPa | 0.1023 ± 0.0031
261.65 K, 15950 kPa | 0.1003 ± 0.005
261.91 K, 36411 kPa | 0.1079 ± 0.0071
261.91 K, 42842 kPa | 0.1093 ± 0.0037
261.93 K, 282 kPa | 0.09438 ± 0.0029
261.93 K, 5041 kPa | 0.09641 ± 0.0032
261.94 K, 29216 kPa | 0.1051 ± 0.0033
261.95 K, 22290 kPa | 0.103 ± 0.0069
261.96 K, 10273 kPa | 0.09851 ± 0.0034
261.96 K, 15950 kPa | 0.1005 ± 0.0037
261.97 K, 65297 kPa | 0.1155 ± 0.0045
262 K, 59186 kPa | 0.115 ± 0.0037
262.01 K, 36414 kPa | 0.1074 ± 0.0045
262.01 K, 42847 kPa | 0.1089 ± 0.0033
262.02 K, 51140 kPa | 0.1116 ± 0.0034
262.04 K, 270 kPa | 0.094 ± 0.0031
262.05 K, 29220 kPa | 0.105 ± 0.0039
262.06 K, 5047 kPa | 0.09593 ± 0.0039
262.06 K, 10278 kPa | 0.09816 ± 0.0031
262.06 K, 22290 kPa | 0.1024 ± 0.0031
262.06 K, 65280 kPa | 0.115 ± 0.0064
262.08 K, 15930 kPa | 0.1003 ± 0.0037
262.1 K, 59178 kPa | 0.1128 ± 0.011
262.12 K, 51139 kPa | 0.1114 ± 0.0044
262.33 K, 36413 kPa | 0.1071 ± 0.0061
262.33 K, 42846 kPa | 0.1091 ± 0.0036
262.37 K, 65275 kPa | 0.1153 ± 0.0038
262.38 K, 29224 kPa | 0.1054 ± 0.0032
262.4 K, 275 kPa | 0.09425 ± 0.0035
262.4 K, 22288 kPa | 0.1026 ± 0.0034
262.41 K, 59182 kPa | 0.1141 ± 0.0087
262.42 K, 5040 kPa | 0.09609 ± 0.004
262.42 K, 10267 kPa | 0.09829 ± 0.0032
262.43 K, 51128 kPa | 0.1115 ± 0.0034
262.44 K, 15943 kPa | 0.1005 ± 0.0032
262.46 K, 42848 kPa | 0.1091 ± 0.0033
262.47 K, 36410 kPa | 0.107 ± 0.0047
262.5 K, 65252 kPa | 0.115 ± 0.004
262.51 K, 29222 kPa | 0.1049 ± 0.0045
262.53 K, 59166 kPa | 0.1136 ± 0.0053
262.55 K, 22288 kPa | 0.1025 ± 0.0031
262.56 K, 273 kPa | 0.09391 ± 0.0032
262.56 K, 51133 kPa | 0.1113 ± 0.0034
262.57 K, 5039 kPa | 0.09583 ± 0.003
262.57 K, 10288 kPa | 0.09813 ± 0.0035
262.57 K, 15931 kPa | 0.09995 ± 0.003
262.8 K, 42854 kPa | 0.1091 ± 0.0033
262.81 K, 36411 kPa | 0.107 ± 0.0033
262.81 K, 65229 kPa | 0.1152 ± 0.0046
262.86 K, 29224 kPa | 0.105 ± 0.0039
262.86 K, 59156 kPa | 0.1141 ± 0.0063
262.89 K, 51121 kPa | 0.1116 ± 0.0034
262.9 K, 22284 kPa | 0.1027 ± 0.0031
262.94 K, 280 kPa | 0.094 ± 0.0032
262.94 K, 10264 kPa | 0.09833 ± 0.0031
262.94 K, 15933 kPa | 0.1003 ± 0.0034
262.95 K, 5058 kPa | 0.09606 ± 0.0029
262.95 K, 42854 kPa | 0.1089 ± 0.0033
262.96 K, 65209 kPa | 0.115 ± 0.008
262.98 K, 36413 kPa | 0.1068 ± 0.0032
263.01 K, 59151 kPa | 0.1135 ± 0.0035
263.03 K, 29224 kPa | 0.1045 ± 0.0032
263.05 K, 51114 kPa | 0.1112 ± 0.0034
263.06 K, 22282 kPa | 0.1023 ± 0.0031
